Data taken from a melting point compilation (Tetko et al.; mined from patent text by program, amines drawn as free bases though some values may be those of a salt).

Point of comparison: `CCn1cc(C(=O)O)c(=O)c2cc3cc(F)c(N4CCNC(c5cccc(F)c5)C4)cc3nc21` (racemic), melting point 284 °C. Against it:
- O=C(O)CCc1cc2cc(Cl)ccc2n1S(=O)(=O)c1ccc(Cl)cc1 — lower, 158 to 160 °C
- CC(=O)c1ccc2c(c1)C(c1ncccc1C)CC(C)(C)O2 (configuration not stated) — lower, 87 to 88 °C
- Cc1cccc(-n2c(-c3sc(NC(=O)c4ccccc4)nc3-c3ccccc3)nc3ccccc3c2=O)c1 — not separable, > 275 °C
- Nc1nc(C(=Cc2cccc3ccccc23)C(=O)O)cs1 — lower, 220 °C
- O=C(O)c1cc(S(=O)(=O)N2CCSCC2)ccc1Br — lower, 195 to 198 °C
- CC(O)C#Cc1cc(C(C)Nc2nc(N)nc(C(C)(C)F)n2)ccc1F (configuration not stated) — lower, 119 to 122 °C
- N#Cc1cc(NC(=O)c2ccn(-c3ccc(F)cc3)c2)ccc1N1CCC(N2CCOCC2)CC1 — lower, 182 to 183 °C
- O=Cc1cccc2nnsc12 — lower, 134 to 136 °C
- O=C(NCCCN1CCCCC1)c1cccc(Nc2ncnc3[nH]cc(C(=O)c4ccccc4)c23)c1 — higher, > 300 °C
- COC(=O)CC/C(C)=C/Cc1c(NC(=O)N(C)C)c2c(c(C)c1OC)COC2=O — lower, 116 to 118 °C
- Cn1cnc2nc(-c3ccc(C#N)cc3)nn2c1=S — higher, > 300 °C
- Cn1ccnc1COc1cc(Oc2ccc(S(C)(=O)=O)cc2)cc2cc(C3=NCC(CC(N)=O)S3)[nH]c12 (configuration not stated) — lower, 130 to 131 °C
- Nc1nc2c(c(Nc3ccccc3)n1)-c1ccccc1C2 — lower, 215 to 217 °C
- CCOC(=O)c1ccc(C(F)(F)F)c(N(C)C(C)=O)n1 — lower, 145 to 146 °C
- CC(=O)N1C(=O)N(c2cc(Cl)cc(Cl)c2)C(=O)C1=Cc1ccc(C#N)cc1 — lower, 212 °C
- COC(=O)CS(=O)(=O)c1ccccc1C(=O)OC — lower, 102 to 103 °C
- Cc1cnccc1C(CCC(=O)O)C(=O)c1cccc(OCc2ccccc2)c1 (racemic) — lower, 55 to 57 °C
- O=c1c2ccccc2oc2cc(OCC3CO3)cc(O)c12 (configuration not stated) — lower, 197 °C
- CN(C)C=C(C#N)C(=O)c1ccc(-n2ccnc2)cc1 — lower, 165 °C
- CC(=O)C1CC=C2C(CCC3=Cc4c(cnn4-c4ccc(F)cc4)CC32C)C1C(C)=O (configuration not stated) — lower, 157 to 159 °C
- COc1ccc2c(c1)CCC1CCNC(=O)C(CC3(C)OCCO3)=C21 (configuration not stated) — lower, 192 to 194 °C
- CCCc1ccc2oc(Cc3ccc(OC)cc3)c(C)c2c1O — lower, 83 to 96 °C
- Cc1cccc(Nc2cc(Nc3ccc(OCCN(C)C)cc3)ncn2)c1 — lower, 219 to 222 °C
- CNC(=O)c1ccccc1Nc1nc(Nc2cc3c(cc2OC)N(C)C(=O)OCC3)ncc1C(F)(F)F — lower, 210 to 212 °C
- CCOC(=O)c1cc(C#N)c(C=O)nc1N1CCCCC1 — lower, 62 to 64 °C
- CCn1cc(C2(c3cccc(-c4cccnc4F)c3)N=C(N)N(C)C2=O)cc1CO (configuration not stated) — lower, 170 to 172 °C
- CS(=O)(=O)c1ccc(-c2cc(CO)nn2C2CCCCCC2)cc1 — lower, 116 to 118 °C
- CCCCn1c(=O)c2nn(S(=O)(=O)c3cc(Cl)c(Cl)s3)cc2n(CCCC)c1=O — lower, 163 to 166 °C
- O=C(O)CNC(=O)c1ccc(C(=O)NS(=O)(=O)c2ccccc2)cn1 — lower, 190 to 191 °C
- CCc1nc(C)c(CC(=O)N(CC)CC)c(=O)n1Cc1ccc(-c2ccccc2-c2nnn[nH]2)cc1 — lower, 125 to 131 °C
- O=C(O)Cc1ccc(OCCNC(=O)C2Cc3ccccc3N2S(=O)(=O)c2ccc(-c3cccc(C(F)(F)F)c3)cc2)c(Cl)c1 (configuration not stated) — lower, 96 °C
- CC(C)(C)OC(=O)NC1CCN(C(=O)C2CCN(C(=O)OCc3ccccc3)CC2)CC1 — lower, 150 to 152 °C
- CCC1=C(O)C(=O)CO1 — lower, 47 to 48 °C
- CCOC(=O)N1CCN(c2cc3nc(C(C)(C)C)sc3cc2N=C=S)CC1 — lower, 131 to 134 °C
- COc1cccc(NC(=O)NC2N=C(C(C)C)c3ccccc3N(CC(=O)N3CC4CCC(CC4)C3)C2=O)c1 (configuration not stated) — lower, 139 to 142 °C
- Cc1ccc(-c2c[nH]c(-c3ccc4c(c3)C(C)(C)CCC4(C)C)c2)cc1 — lower, 190 to 192 °C
